Measured values reported in PMC11336009 (GeroScience, 2024).
Where two headings read alike, the source gives them in different places.

Columns and labels:
[1] = tested on: 6-OHDA unilateral medial forebrain bundle lesioned rat; assay: Methamphetamine-induced rotation in unilateral 6-OHDA lesioned rats; assay type: in vivo; details: for Meth-induced ipsilateral rotation vs vehicle: early treatment 10 mg/kg daily p.o. from 7 days before lesioning, meth 2.5 mg/kg s.c. on days 20 and 30
GLP-1 and GIP = assay: Active GLP-1 and GIP measurement in rat plasma and CSF (ELISA); assay type: in vivo; details: 30 mg/kg daily p.o. day 7 to 45, day 45
Description: Plasma was obtained from whole blood samples at the time of euthanasia (centrifugation 10,000xG 60 s at 4 °C), and CSF was obtained from the cisterna magna. Samples were evaluated by ELISA using kits from IBL (Immuno-Biological Laboratories, Inc.) or from Millipore, following their protocols.

[2] = tested on: 6-OHDA unilateral medial forebrain bundle lesioned rat; assay: BrdU immunoreactivity (neurogenesis marker) in SVZ and striatum of 6-OHDA lesioned rats; assay type: in vivo; details: delayed treatment 30 mg/kg daily p.o.; BrdU 50 mg/kg i.p. day 8 to 20; day 21
Description: Gliptin treatment was initiated either prior to or after 6-OHDA lesioning (early and delayed treatment, respectively) as follows. […]. An estimated dose for a 250-g rat under this treatment was 10 mg/kg/day. […]. An estimated, clinically relevant, dose for a 250 g rat under this treatment was thus 30 mg/kg/day. Specifically for drug admixture into diet, drug was solubilized in 100% ETOH that was then added to the 16.2 g of food chow. Thereafter, the ETOH was evaporated off. […] Animals were weighed twice weekly and the amount of drug added to the chow was modified accordingly to maintain the daily required dose. […]. […] Specifically, the 10 mg/kg oral daily drug dose in our rat studies is equivalent to the routine human daily oral dose (100 mg in a 65 kg human) of these gliptins used in T2DM, and the 30 mg/kg rat dose is equivalent to a threefold higher dose that is well-tolerated in humans.
Following the exact same protocol described in Yin et al., 2012 [34] and Harvey et al. 2004 [36], anesthetized rats were subjected to a 6-OHDA unilateral medial forebrain bundle lesion. Briefly, 6-OHDA (2.27 µg/µL × 5 µL in 0.9% NaCl containing 0.2 mg/ml ascorbic acid) was unilaterally injected into the medial forebrain bundle (-4.4 mm AP, 1.2 mm ML relative to bregma and 8.4 mm below skull) over 4 min through a syringe pump (Micro 4, WPI, Sarasota, FL), as approved under National Health Research Institutes, Taiwan, Protocol # 102,068-A; 102,102-A. Following this procedure, all animals were monitored daily for adverse signs of health for 1 week (in line with the approved protocols).
BrdU (Sigma-Aldrich, St. Louis, MO) was injected parenterally (i.p.) from day 8 to day 20 after 6-OHDA lesioning at the dose of 50 mg/kg/day as a marker of neurogenesis. Animals were euthanized for immunostaining on day 21.
BrdU and TH localization was determined by immunohistochemistry. Serial sections of the entire brain were cut at 30 μm thickness by cryostat. One series from every sixth section was stained for TH. To control for staining variability, specimens from all experimental groups were included in every batch and reacted together in a net well tray under the same conditions. Sections were rinsed in 0.1 M phosphate buffer (PB), blocked with 4% bovine serum albumin (BSA) and 0.3% Triton x-100 in 0.1 M PB. […]
TH immunoreactivity and BrdU cell number in striatum were averaged from 3 brain sections with visible anterior commissure in each animal. TH immunoreactivity in SNc was measured every 6th Sect. […] Nigral volume was analyzed using Cavalieri's method.

[3] = Rat pharmacokinetic study: plasma and brain levels after single oral dose; assay type: in vivo; details: male, Sprague-Dawley; for concentration at 105 min: po, 10 mg/kg, mean ± SEM
Description: A blood sample was obtained and the plasma was separated (10,000 G, 60 s, 4 °C) and frozen to -80 °C. The vasculature was immediately cleared with physiological saline, and a section through the right cerebral hemisphere was obtained and flash frozen to -80 °C.

[4] = tested on: 6-OHDA unilateral medial forebrain bundle lesioned rat; assay: Dopamine measurements by HPLC in striatum and SNc of 6-OHDA lesioned rats; assay type: in vivo; details: delayed treatment, low dose 10 mg/kg daily p.o. from day 7
Description: Gliptin treatment was initiated either prior to or after 6-OHDA lesioning (early and delayed treatment, respectively) as follows. […] An estimated dose for a 250-g rat under this treatment was 10 mg/kg/day. […] An estimated, clinically relevant, dose for a 250 g rat under this treatment was thus 30 mg/kg/day. Specifically for drug admixture into diet, drug was solubilized in 100% ETOH that was then added to the 16.2 g of food chow. Thereafter, the ETOH was evaporated off. […] Animals were weighed twice weekly and the amount of drug added to the chow was modified accordingly to maintain the daily required dose.
Brain samples were collected at 45 days after 6-OHDA lesioning. Striatal and SNc tissues were weighed and stored at − 80 °C until extraction. The tissues obtained from each animal were homogenized in 0.1 M perchloric acid and centrifuged at 13,000 g for 15 min. DA levels were measured by HPLC with electrochemical detection [47]. The analytical column was a Symmetry C18 3.5 µm (4.6 × 150.0 mm) from Waters (Milford, MA). The mobile phase consisted of 0.01 M sodium dihydrogen phosphate, 0.01 M citric acid, 2 mM sodium EDTA, 1 mM sodium octylsulfate, 10% methanol, pH 3.5 and was used at flow rate of 0.9 ml/min and a temperature of 25 °C. […] DA content was calculated as nmole/g of tissue weight.

P-glycoprotein = details: at the level of the kidney; cited from earlier work
rat rotenone model of PD = details: cited from earlier work
high-fat-fed mice = details: cited from earlier work
[5] = delayed treatment 30 mg/kg daily p.o. from day 7 to 45, rotation on days 20, 30 and 40

Row | Compound | Meth-induced rotation vs vehicle [1, 5] | Meth-induced rotational behavior vs vehicle ([1]; delayed treatment, low dose 10 mg/kg daily p.o. from day 7) | Meth-induced ipsilateral rotation vs vehicle [1] | Meth-induced rotation vs vehicle ([1]; i.c.v. 15.4 nmole 10 min prior to 6-OHDA lesioning, evaluated on day 30) | CSF GIP level vs vehicle (GLP-1 and GIP; CSF) | CSF GLP-1 level vs vehicle (GLP-1 and GIP; CSF) | Plasma GIP level vs vehicle (GLP-1 and GIP) | Plasma GLP-1 level vs vehicle (GLP-1 and GIP) | BrdU labeling in the SVZ vs vehicle [2] | BrdU labeling in the lesioned striatum vs vehicle [2] | concentration at 105 min ([3]; brain, rat brain, 105 min after oral 10 mg/kg, read-out: BrFree (brain free concentration)) [nM] | concentration at 105 min ([3]; brain, rat brain, 105 min after oral 10 mg/kg, read-out: BrTotal (brain total concentration)) [nM] | Kp at 105 min ([3]; brain/plasma, 105 min after oral 10 mg/kg, read-out: Br/Pl ratio (Total)) | concentration at 105 min ([3]; plasma, rat plasma, 105 min (predicted Cmax) after oral 10 mg/kg, n = 5 to 6, read-out: PlTotal (plasma total concentration)) [nM] | concentration at 105 min ([3]; plasma, rat plasma, 105 min after oral 10 mg/kg, read-out: PlFree (plasma free concentration)) [nM] | DA levels in SNc or striatum vs vehicle ([4]; 10 mg/kg) | DA levels in SNc or striatum vs vehicle ([4]; listed as PF‐00734,200, 10 mg/kg) | Substrate for the multi-drug resistance transporter P-glycoprotein (P-glycoprotein) | Effects in rat rotenone model of PD (rat rotenone model of PD) | Hippocampal neurogenesis (high-fat-fed mice)
1 | O=C([C@@H]1C[C@H](N2CCN(c3ncccn3)CC2)CN1)N1CCC(F)(F)C1 [PF-00734,200, Gosogliptin] | significantly attenuated | did not alter rotational behavior | significantly reduced | no different from similarly vehicle-treated animals | elevated | elevated | elevated | elevated | did not alter | significantly increased | 195 ± 34.9 | 574 ± 103 | 0.62 | 922 ± 206 | 830 ± 185 | not significantly altered | did not alter DA level | – | – | –
2 | N[C@@H](CC(=O)N1CCn2c(nnc2C(F)(F)F)C1)Cc1cc(F)c(F)cc1F [Sitagliptin] | significantly attenuated | – | small but significant difference | – | elevated | – | elevated | elevated | did not alter | significantly increased | – | – | – | – | – | – | – | substrate | mitigated motor deficits, striatal DA loss, SNc dopaminergic neuronal degeneration and neuroinflammation | augmented hippocampal neurogenesis
